Source: patent US8299129B2, “Peptide lipid-containing carrier and method for introducing compound into cells using same” (Fukuoka Prefectural Government, priority 2006, dated 2012)

Assays:
Balb/c mouse [1] = assay: Introduction of Cy3-labeled siRNA into mouse tissues using peptide lipid, fluorescence microscopy of removed tissues; assay type: in vivo; conditions: tail vein injection, Cy3-labeled siRNA complex, 4 hours
Protocol: (§1) Cy3-labeled siRNA ([…], purchased from Dharmacon) was mixed with 200 μl of 150 mM NaCl solution, 1.3 mM peptide lipid (RE-C12) (16 μl) was mixed with the above-mentioned siRNA solution and the mixture was incubated for 5 min to give peptide lipid—RNA complex. This was injected to Balb/c mouse (15-week-old) from the tail vein. […] Four hours later, the mouse was autopsied and each tissue (heart, lung, liver, kidney, spleen) was removed, which was cut into small pieces and observed with a fluorescence microscope. When peptide lipid was used as a carrier, siRNA could be introduced into each tissue in the body.

Balb/c mouse [2] = assay: Acute toxicity in mouse after tail vein injection of peptide lipid-RNA complex; assay type: in vivo; conditions: at the concentration tested
Protocol: as §1

Arg-Glu-C12 [RE-C12]
Introduction efficiency into the liver and spleen (Balb/c mouse [1]): particularly superior | evaluation (introduction of siRNA), heart (Balb/c mouse [1]; heart): 5% | evaluation (introduction of siRNA), kidney (Balb/c mouse [1]; kidney): 5% | evaluation (introduction of siRNA), liver (Balb/c mouse [1]; liver): 25% | evaluation (introduction of siRNA), lung (Balb/c mouse [1]; lung): 10% | evaluation (introduction of siRNA), spleen (Balb/c mouse [1]; spleen): 30% | acute toxicity (Balb/c mouse [2]): acute toxicity was not observed
